Data taken from patent publication EP3246029A1, “PHARMACEUTICAL COMBINATION OF NINTEDANIB AND CAPECITABINE FOR THE TREATMENT OF COLORECTAL CANCER” (BOEHRINGER INGELHEIM INTERNATIONAL GMBH, priority 2016, dated 2017).

Legend:
[1] = system: HT-29 xenografts (human CRC tumor cell line); test: in vivo tumor xenograft experiment, subcutaneous HT-29 xenografts (Example A); conditions: nude mice, suboptimal doses, 28 days of treatment
Experimental: In order to analyse the anti-tumor effects of combining the inhibition of tumor angiogenesis by interfering with the VEGFR, FGFR and PDGFR signalling cascades with the established anti-proliferative treatment modality of capecitabine (Xeloda®) in a xenograft model of CRC the following in vivo experiment is performed. Nude mice carrying established subcutaneous HT-29 xenografts (human CRC tumor cell line) are randomized and treated with either nintedanib or capecitabine alone or with the combination of both drugs. After 28 days of treatment the tumors on the control treated mice reach the endpoint and are in average […] in volume. […] TGI = (1−(Xtreated,final−Xtreated,day1)/(Xcontrol,final−Xcontrol,day1))*100% [formula] where X = mean tumor weigh, final is day 28
The weight gain of the mice in the treatment groups in comparison to the weight of the control mice is reduced, but nevertheless well tolerated.

[2] = in adults; cited from earlier work
GS-9L = test: in vivo anti-tumor efficacy, GS-9L syngeneic rat tumor model; conditions: Glioblastoma, 50mg/kg/d
HT-29 = test: in vivo anti-tumor efficacy, HT-29 xenograft model; conditions: Colorectal, HT-29, 100mg/kg/d
HT-29 large tumors = test: in vivo anti-tumor efficacy, HT-29 large tumors xenograft model; conditions: Colorectal
Calu-6 = test: in vivo anti-tumor efficacy, Calu-6 xenograft model; conditions: Lung (non-small-cell), Calu-6, 50mg/kg/d
Rip-Tag = test: in vivo anti-tumor efficacy, Rip-Tag murine transgenic pancreas model
SKOV3 = test: in vivo anti-tumor efficacy, SKOV3 xenograft model; conditions: Ovarian, SKOV3, 50mg/kg/d
Caki-1 = test: in vivo anti-tumor efficacy, Caki-1 xenograft model; conditions: Renal, Caki-1, 100mg/kg/d
PAC-120 = test: in vivo anti-tumor efficacy, PAC-120 xenograft model; conditions: Prostate (hormone-dependent), PAC-120, 100mg/kg/d
FaDu = test: in vivo anti-tumor efficacy, FaDu xenograft model; conditions: Head and neck, 100mg/kg/d
NCI-H460 = test: in vivo anti-tumor efficacy, NCI-H460 xenograft model; conditions: Lung (non-small-cell), NCI-H460, 25mg/kg/d

SMILES	TGI value [1] [%]	AUC [2] [mg·h/L]	Cmax [2] [mg/L]	bioavailability [2]	T/C (GS-9L)	T/C (HT-29)	Efficacy (HT-29 large tumors)	T/C (Calu-6)	Efficacy (Rip-Tag)	T/C (SKOV3)	T/C (Caki-1)	T/C (PAC-120)	T/C (FaDu)	T/C (NCI-H460)
CCCCCOC(=O)Nc1nc(=O)n([C@@H]2O[C@H](C)[C@@H](O)[C@H]2O)cc1F [capecitabine, 5'-deoxy-5-fluoro-N-[(pentyloxy)carbonyl]-cytidine]	50	5.96	3.9	≈ 100%										
COC(=O)c1ccc2c(c1)NC(=O)/C2=C(\Nc1ccc(N(C)C(=O)CN2CCN(C)CC2)cc1)c1ccccc1 [nintedanib, 3-Z-[1-(4-(N-((4-methyl-piperazin-1-yl)-methylcarbonyl)-N-methyl-amino)-anilino)-1-phenyl-methylene]-6-methoxycarbonyl-2-indolinone]	35				T/C 32% @ 50mg/kg/d	T/C 16% @ 100mg/kg/d	tumor volume reduction	T/C 24% @ 50mg/kg/d	interference with tumor formation	T/C 19% @ 50mg/kg/d	T/C 13% @ 100mg/kg/d	T/C 34% @ 100mg/kg/d	T/C 11% @ 100mg/kg/d	T/C 54% @ 25mg/kg/d
